Measured values published in US20240109900A1, “AZABICYCLIC SHP2 INHIBITORS” (IRBM S.P.A., priority 2021, published 2024).
Like-named read-outs stand apart in the source and are kept apart here.

Key:
[1] = biological target: SHP-2 enzyme (Met1-Leu525) (Homo sapiens (Human), UniProt Q06124); assay: SHP2 inhibition enzymatic assay; type: biochemical; settings: 0.5 nM SHP-2 activated by 500 nM IRS1 peptide, 75 μM DiFMUP substrate; read-out: SHP2wt-IC50
How it was run: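 Compounds were preincubated 30 min with 0.5 nM SHP-2 (Met1-Leu525) plus 500 nM IRS1 activating peptide (pH 7.2 HEPES, 5 mM DTT), then 75 μM DiFMUP substrate reacted 30 min at room temperature. After bpV quench, DiFMUP fluorescence gave % inhibition; four-parameter logistic fit yielded IC50.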

[2] = system: ERK phosphorylation in KYSE-520 cells; assay: Phospho-ERK cellular assay; type: cell-based; settings: Homo sapiens, KYSE-520 cells, 2 h at 37° C., phospho-ERK1/2 (Thr202/Tyr204) TR-FRET, read-out: PERK IC50
How it was run: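 TR-FRET read-out of ERK1/2 Thr202/Tyr204 phosphorylation was taken after overnight antibody incubation at room temperature. Before that, KYSE-520 cells were treated 2 h at 37 °C with compound dilutions and lysed 30 min. Percent inhibition relative to vehicle and cell-free wells was fitted four-parametrically to give IC50.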

Chain of SHP-2 enzyme (Met1-Leu525) (Q06124 1-525): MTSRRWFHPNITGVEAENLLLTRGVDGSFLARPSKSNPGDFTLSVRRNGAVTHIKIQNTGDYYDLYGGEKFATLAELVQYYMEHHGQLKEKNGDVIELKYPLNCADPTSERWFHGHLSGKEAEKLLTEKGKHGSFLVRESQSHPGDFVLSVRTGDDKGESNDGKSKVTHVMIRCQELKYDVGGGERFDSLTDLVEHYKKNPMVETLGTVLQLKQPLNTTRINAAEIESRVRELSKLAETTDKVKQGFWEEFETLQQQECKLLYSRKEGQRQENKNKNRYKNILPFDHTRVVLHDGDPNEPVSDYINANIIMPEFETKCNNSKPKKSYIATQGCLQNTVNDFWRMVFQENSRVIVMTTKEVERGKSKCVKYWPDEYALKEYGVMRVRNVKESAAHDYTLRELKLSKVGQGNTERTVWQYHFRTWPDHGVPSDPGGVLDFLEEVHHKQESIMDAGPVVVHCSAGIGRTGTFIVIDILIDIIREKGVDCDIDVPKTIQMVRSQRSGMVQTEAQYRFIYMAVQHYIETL

| IC50 [1] | IC50 ([2]; KYSE-520, 2 h) | SMILES | IC50 [2] |
| --- | --- | --- | --- |
| < 500 nM | < 1000 nM | Cn1ncc2ccc(-c3n[nH]c4nc(N5CC[C@@H]6[C@H](C5)[C@@]6(CN)c5ccccc5F)cnc34)c(Cl)c21 [Example 364, ((1S,6R,7R)-3-(3-(7-chloro-1-methyl-1H-indazol-6-yl)-1H-pyrazolo[3,4-b]pyrazin-6-yl)-7-(2-fluorophenyl)-3-azabicyclo[4.1.0]heptan-7-yl)methanamine] | – |
| < 500 nM | < 1000 nM | Cn1cc2c(Cl)c(-c3n[nH]c4nc(N5CC[C@@H]6[C@H](C5)[C@@]6(CN)c5cc(F)ccc5F)cnc34)ccc2n1 [Example 369, ((1S,6R,7R)-3-(3-(4-chloro-2-methyl-2H-indazol-5-yl)-1H-pyrazolo[3,4-b]pyrazin-6-yl)-7-(2,5-difluorophenyl)-3-azabicyclo[4.1.0]heptan-7-yl)methanamine] | – |
| < 500 nM | < 1000 nM | NC[C@]1(c2ccccc2F)[C@@H]2CCN(c3cnc4c(-c5cc6cc[nH]c(=O)c6cc5Cl)n[nH]c4n3)C[C@@H]21 [Example 370, 6-(6-((1S,6R,7R)-7-(aminomethyl)-7-(2-fluorophenyl)-3-azabicyclo[4.1.0]heptan-3-yl)-1H-pyrazolo[3,4-b]pyrazin-3-yl)-7-chloroisoquinolin-1(2H)-one] | – |
| < 500 nM | < 1000 nM | NC[C@]1(c2ccccc2F)[C@@H]2CCN(c3cnc4c(-c5ccc(F)c6ncccc56)n[nH]c4n3)C[C@@H]21 [Example 376, ((1S,6R,7R)-7-(2-fluorophenyl)-3-(3-(8-fluoroquinolin-5-yl)-1H-pyrazolo[3,4-b]pyrazin-6-yl)-3-azabicyclo[4.1.0]heptan-7-yl)methanamine] | – |
| < 500 nM | > 5000 nM | NC[C@]1(c2ccccc2F)[C@@H]2CCN(c3cnc4c(ccn4-c4ccnc5ccccc45)n3)C[C@@H]21 [Example 382, ((1S,6R,7R)-7-(2-fluorophenyl)-3-(5-(quinolin-4-yl)-5H-pyrrolo[2,3-b]pyrazin-2-yl)-3-azabicyclo[4.1.0]heptan-7-yl)methanamine] | – |
| < 500 nM | < 1000 nM | NC[C@]1(c2ccccc2F)[C@@H]2CCN(c3cnc(Sc4ccnc(N)c4Cl)c(N)n3)C[C@@H]21 [Example 384, 3-((2-amino-3-chloropyridin-4-yl)thio)-6-((1S,6R,7R)-7-(aminomethyl)-7-(2-fluorophenyl)-3-azabicyclo[4.1.0]heptan-3-yl)pyrazin-2-amine] | – |
| < 500 nM | < 1000 nM | NC[C@]1(c2ccccc2F)[C@@H]2CCN(c3cnc4c(-c5ccnc(N6CC[C@H](CO)C6)c5Cl)n[nH]c4n3)C[C@@H]21 [Example 386, ((S)-1-(4-(6-((1S,6R,7R)-7-(aminomethyl)-7-(2-fluorophenyl)-3-azabicyclo[4.1.0]heptan-3-yl)-1H-pyrazolo[3,4-b]pyrazin-3-yl)-3-chloropyridin-2-yl)pyrrolidin-3-yl)methanol] | – |
| < 500 nM | < 1000 nM | NC[C@]1(c2ccccc2F)[C@@H]2CCN(c3cnc(Sc4ccnc(-n5cccn5)c4Cl)cn3)C[C@@H]21 [Example 388, ((1S,6R,7R)-3-(5-((3-chloro-2-(1H-pyrazol-1-yl)pyridin-4-yl)thio)pyrazin-2-yl)-7-(2-fluorophenyl)-3-azabicyclo[4.1.0]heptan-7-yl)methanamine] | – |
| < 500 nM | > 5000 nM | NC[C@]1(c2ccccc2F)[C@@H]2CCN(c3cnc4c(-c5cnn(-c6ccccc6)c5)n[nH]c4n3)C[C@@H]21 [Example 390, ((1S,6R,7R)-7-(2-fluorophenyl)-3-(3-(1-phenyl-1H-pyrazol-4-yl)-1H-pyrazolo[3,4-b]pyrazin-6-yl)-3-azabicyclo[4.1.0]heptan-7-yl)methanamine] | – |

The next lines start with the molecule.

| SMILES | IC50 [1] | IC50 ([2]; KYSE-520, 2 h) | IC50 [2] |
| --- | --- | --- | --- |
| NC[C@]1(c2ccccc2F)[C@@H]2CCN(c3cnc4c(-c5ccc(C(N)=O)cc5F)n[nH]c4n3)C[C@@H]21 [Example 367, 4-(6-((1S,6R,7R)-7-(aminomethyl)-7-(2-fluorophenyl)-3-azabicyclo[4.1.0]heptan-3-yl)-1H-pyrazolo[3,4-b]pyrazin-3-yl)-3-fluorobenzamide] | < 500 nM | < 1000 nM | – |
| Cc1nc(N)ccc1-c1n[nH]c2nc(N3CC[C@@H]4[C@H](C3)[C@@]4(CN)c3ccccc3F)cnc12 [Example 368, 5-(6-((1S,6R,7R)-7-(aminomethyl)-7-(2-fluorophenyl)-3-azabicyclo[4.1.0]heptan-3-yl)-1H-pyrazolo[3,4-b]pyrazin-3-yl)-6-methylpyridin-2-amine] | < 500 nM | < 1000 nM | – |
| Cc1nn(C)c(C)c1-c1n[nH]c2nc(N3CC[C@@H]4[C@H](C3)[C@@]4(CN)c3ccccc3F)cnc12 [Example 371, ((1S,6R,7R)-7-(2-fluorophenyl)-3-(3-(1,3,5-trimethyl-1H-pyrazol-4-yl)-1H-pyrazolo[3,4-b]pyrazin-6-yl)-3-azabicyclo[4.1.0]heptan-7-yl)methanamine] | > 3000 nM | > 5000 nM | – |
| NC[C@]1(c2ccccc2F)[C@@H]2CCN(c3cnc4c(-c5ccc6c(c5)NC(=O)NC6)n[nH]c4n3)C[C@@H]21 [Example 372, 7-(6-((1S,6R,7R)-7-(aminomethyl)-7-(2-fluorophenyl)-3-azabicyclo[4.1.0]heptan-3-yl)-1H-pyrazolo[3,4-b]pyrazin-3-yl)-3,4-dihydroquinazolin-2(1H)-one] | < 500 nM | < 1000 nM | – |
| NC[C@]1(c2ccccc2F)[C@@H]2CCN(c3cnc4c(-c5ccc6c(c5Cl)C(F)(F)C(=O)N6)n[nH]c4n3)C[C@@H]21 [Example 373, 5-(6-((1S,6R,7R)-7-(aminomethyl)-7-(2-fluorophenyl)-3-azabicyclo[4.1.0]heptan-3-yl)-1H-pyrazolo[3,4-b]pyrazin-3-yl)-4-chloro-3,3-difluoroindolin-2-one] | < 500 nM | < 1000 nM | – |
| NC[C@]1(c2ccccc2F)[C@@H]2CCN(c3cnc4c(-c5ccc(O)c(F)c5F)n[nH]c4n3)C[C@@H]21 [Example 374, 4-(6-((1S,6R,7R)-7-(aminomethyl)-7-(2-fluorophenyl)-3-azabicyclo[4.1.0]heptan-3-yl)-1H-pyrazolo[3,4-b]pyrazin-3-yl)-2,3-difluorophenol] | < 500 nM | < 1000 nM | – |
| NC[C@]1(c2ccccc2F)[C@@H]2CCN(c3cnc4c(-c5cc6c(cc5Cl)NC(=O)C6=O)n[nH]c4n3)C[C@@H]21 [Example 375, 5-(6-((1S,6R,7R)-7-(aminomethyl)-7-(2-fluorophenyl)-3-azabicyclo[4.1.0]heptan-3-yl)-1H-pyrazolo[3,4-b]pyrazin-3-yl)-6-chloroindoline-2,3-dione] | < 500 nM | < 1000 nM | – |
| Cc1nc(-c2ccc(-c3n[nH]c4nc(N5CC[C@@H]6[C@H](C5)[C@@]6(CN)c5ccccc5F)cnc34)c(Cl)c2)no1 [Example 377, ((1S,6R,7R)-3-(3-(2-chloro-4-(5-methyl-1,2,4-oxadiazol-3-yl)phenyl)-1H-pyrazolo[3,4-b]pyrazin-6-yl)-7-(2-fluorophenyl)-3-azabicyclo[4.1.0]heptan-7-yl)methanamine] | < 500 nM | < 1000 nM | – |
| Cn1cc2c(Cl)c(-c3c[nH]c4nc(N5CC[C@@H]6[C@H](C5)[C@@]6(CN)c5ccccc5F)n(C)c(=O)c34)ccc2n1 [Example 378, 2-((1S,6R,7R)-7-(aminomethyl)-7-(2-fluorophenyl)-3-azabicyclo[4.1.0]heptan-3-yl)-5-(4-chloro-2-methyl-2H-indazol-5-yl)-3-methyl-3,7-dihydro-4H-pyrrolo[2,3-d]pyrimidin-4-one] | < 500 nM | < 1000 nM | – |
| Cn1c(N2CC[C@@H]3[C@H](C2)[C@@]3(CN)c2ccccc2F)nc2[nH]cc(-c3ccc4c(=O)[nH]ccc4c3F)c2c1=O [Example 380, 6-(2-((1S,6R,7R)-7-(aminomethyl)-7-(2-fluorophenyl)-3-azabicyclo[4.1.0]heptan-3-yl)-3-methyl-4-oxo-4,7-dihydro-3H-pyrrolo[2,3-d]pyrimidin-5-yl)-5-fluoroisoquinolin-1(2H)-one] | < 500 nM | < 1000 nM | – |
| NC[C@]1(c2ccccc2F)[C@@H]2CCN(c3cnc4c(-c5cc(F)c(CO)c(F)c5)n[nH]c4n3)C[C@@H]21 [Example 381, (4-(6-((1S,6R,7R)-7-(aminomethyl)-7-(2-fluorophenyl)-3-azabicyclo[4.1.0]heptan-3-yl)-1H-pyrazolo[3,4-b]pyrazin-3-yl)-2,6-difluorophenyl)methanol] | < 500 nM | > 5000 nM | – |
| CC(=O)NC[C@]1(c2ccccc2F)[C@@H]2CCN(c3cnc4c(-c5ccc6nn(C)cc6c5)n[nH]c4n3)C[C@@H]21 [Example 383, N-(((1S,6R,7R)-7-(2-fluorophenyl)-3-(3-(2-methyl-2H-indazol-5-yl)-1H-pyrazolo[3,4-b]pyrazin-6-yl)-3-azabicyclo[4.1.0]heptan-7-yl)methyl)acetamide] | > 3000 nM | < 1000 nM | – |
| NC[C@]1(c2ccccc2F)[C@@H]2CCN(c3ccc4nc(Sc5ccnc(N)c5Cl)cnc4n3)C[C@@H]21 [Example 385, 4-((6-((1S,6R,7R)-7-(aminomethyl)-7-(2-fluorophenyl)-3-azabicyclo[4.1.0]heptan-3-yl)pyrido[2,3-b]pyrazin-2-yl)thio)-3-chloropyridin-2-amine] | < 500 nM | – | < 1000 nM |
